In this series the test system is CCRIS mutagenicity, Ames/micronucleus/aberration tests. The series can be described thus: CCRIS mutagenicity studies.
Where [1] appears, read: Test System: AMES SALMONELLA TYPHIMURIUM, Strain/Indicator: TA98, Metabolic Activation: RAT, LIVER, S-9, AROCLOR 1254, Method: STANDARD PLATE.
The mark [2] stands for this setting: Test System: AMES SALMONELLA TYPHIMURIUM, Strain/Indicator: TA100, Metabolic Activation: NONE, Method: STANDARD PLATE.
The mark [3] stands for this setting: Test System: AMES SALMONELLA TYPHIMURIUM, Strain/Indicator: TA100, Metabolic Activation: S-9, Method: STANDARD PLATE.

Active and inactive are the calls of the source. The rule behind the calls is not given here.

On to `c1cc2ccc3cc4ccoc4c4ccc(c1)c2c34`, for which the mutagenic call runs as follows: (Test System: AMES SALMONELLA TYPHIMURIUM, Strain/Indicator: TA98, Metabolic Activation: NONE, Method: STANDARD PLATE) “inactive; negative”; under setting [1], “active; positive”.
Consider `CNC(=O)OCc1nc(SC)n(C)c1COC(=O)NC`, for which the mutagenic call (Test System: Mouse lymphoma, Strain/Indicator: L5178Y (tk+/tk-), Metabolic Activation: None, Method: Suspension/plate) was “active; positive” and the mutagenic call (Test System: Mouse lymphoma, Strain/Indicator: L5178Y (tk+/tk-), Metabolic Activation: Rat, Liver, S-9, Aroclor 1254, Method: Suspension/plate) is “active; positive”.
Regarding `CC(O)CO` (stereo not drawn), the mutagenic call by setting is: (Test System: AMES SALMONELLA TYPHIMURIUM, Strain/Indicator: TA98, Metabolic Activation: HAMSTER, LIVER, S-9, AROCLOR 1254, Method: PREINCUBATION) “inactive; negative”; (Test System: AMES SALMONELLA TYPHIMURIUM, Strain/Indicator: TA98, Metabolic Activation: NONE, Method: PREINCUBATION) “inactive; negative”; (Test System: AMES SALMONELLA TYPHIMURIUM, Strain/Indicator: TA98, Metabolic Activation: RAT, LIVER, S-9, AROCLOR 1254, Method: PREINCUBATION) “inactive; negative”; (Test System: AMES SALMONELLA TYPHIMURIUM, Strain/Indicator: TA100, Metabolic Activation: HAMSTER, LIVER, S-9, AROCLOR 1254, Method: PREINCUBATION) “inactive; negative”; (Test System: AMES SALMONELLA TYPHIMURIUM, Strain/Indicator: TA100, Metabolic Activation: NONE, Method: PREINCUBATION) “inactive; negative”; (Test System: AMES SALMONELLA TYPHIMURIUM, Strain/Indicator: TA100, Metabolic Activation: RAT, LIVER, S-9, AROCLOR 1254, Method: PREINCUBATION) “inactive; negative”. Also, the mutagenic call runs as follows: (Test System: AMES SALMONELLA TYPHIMURIUM, Strain/Indicator: TA1535, Metabolic Activation: HAMSTER, LIVER, S-9, AROCLOR 1254, Method: PREINCUBATION) “inactive; negative”; (Test System: AMES SALMONELLA TYPHIMURIUM, Strain/Indicator: TA1535, Metabolic Activation: NONE, Method: PREINCUBATION) “inactive; negative”; (Test System: AMES SALMONELLA TYPHIMURIUM, Strain/Indicator: TA1535, Metabolic Activation: RAT, LIVER, S-9, AROCLOR 1254, Method: PREINCUBATION) “inactive; negative”; (Test System: AMES SALMONELLA TYPHIMURIUM, Strain/Indicator: TA1537, Metabolic Activation: HAMSTER, LIVER, S-9, AROCLOR 1254, Method: PREINCUBATION) “inactive; negative”; (Test System: AMES SALMONELLA TYPHIMURIUM, Strain/Indicator: TA1537, Metabolic Activation: NONE, Method: PREINCUBATION) “inactive; negative”; (Test System: AMES SALMONELLA TYPHIMURIUM, Strain/Indicator: TA1537, Metabolic Activation: RAT, LIVER, S-9, AROCLOR 1254, Method: PREINCUBATION) “inactive; negative”.
Regarding `ClCC(Br)CCl`, the mutagenic call is “active; positive” (Test System: AMES SALMONELLA TYPHIMURIUM, Strain/Indicator: TA100, Metabolic Activation: RAT, LIVER, MICROSOMES, PHENOBARBITAL, NADPH COFACTORS, Method: STANDARD PLATE) and “inactive; negative” (Test System: AMES SALMONELLA TYPHIMURIUM, Strain/Indicator: TA100, Metabolic Activation: RAT, LIVER, MICROSOMES, PHENOBARBITAL, Method: STANDARD PLATE).
Take `CCc1c(O)c(O)c2c(c1O)C(=O)C(O)=C(O)C2=O`: the mutagenic call is “active; positive” (Test System: AMES SALMONELLA TYPHIMURIUM, Strain/Indicator: TA98, Metabolic Activation: MICROSOMAL FRACTION, FULLY ACTIVATED, AND RAT LIVER S-9, Method: STANDARD PLATE); “active; positive” (Test System: AMES SALMONELLA TYPHIMURIUM, Strain/Indicator: TA98, Metabolic Activation: MICROSOMAL FRACTION, NON-FULLY ACTIVATED, Method: STANDARD PLATE); “active; positive” (Test System: AMES SALMONELLA TYPHIMURIUM, Strain/Indicator: TA100, Metabolic Activation: MICROSOMAL FRACTION, FULLY ACTIVATED, AND RAT LIVER S-9, Method: STANDARD PLATE); “active; positive” (Test System: AMES SALMONELLA TYPHIMURIUM, Strain/Indicator: TA100, Metabolic Activation: MICROSOMAL FRACTION, NON-FULLY ACTIVATED, Method: STANDARD PLATE); “active; positive” (Test System: AMES SALMONELLA TYPHIMURIUM, Strain/Indicator: TA1537, Metabolic Activation: MICROSOMAL FRACTION, FULLY ACTIVATED, AND RAT LIVER S-9, Method: STANDARD PLATE); “inactive; negative” (Test System: AMES SALMONELLA TYPHIMURIUM, Strain/Indicator: TA1537, Metabolic Activation: MICROSOMAL FRACTION, NON-FULLY ACTIVATED, Method: STANDARD PLATE).
For `CCCCC1CO1` (stereo not drawn), the mutagenic call is “inactive; negative” under setting [2] and “inactive; negative” (Test System: AMES SALMONELLA TYPHIMURIUM, Strain/Indicator: TA1535, Metabolic Activation: NONE, Method: STANDARD PLATE).
In the case of `O=C1OCC(CCl)=C1Br`, the mutagenic call under setting [2] was “active; positive”.
Turning to `Nc1ccc(I)cc1Cl`, the mutagenic call (End Point: In vitro chromosomal aberrations, Test System: Chinese hamster lung (CHL/IU) cells, Metabolic Activation: Rat, Liver, S9, Phenobarbital and 5,6-benzoflavone) is “active; positive (structural changes). weak response”; the mutagenic call (Test System: Ames Salmonella typhimurium, Strain/Indicator: TA98, Metabolic Activation: None, Method: Preincubation) was “inactive; negative”; the mutagenic call (Test System: Ames Salmonella typhimurium, Strain/Indicator: TA98, Metabolic Activation: Rat, Liver, S9, Sodium phenobarbital and 5,6-benzoflavone (10%), Method: Preincubation) was “inactive; negative”; the mutagenic call (Test System: Ames Salmonella typhimurium, Strain/Indicator: TA100, Metabolic Activation: None, Method: Preincubation) was “inactive; negative”; the mutagenic call (Test System: Ames Salmonella typhimurium, Strain/Indicator: TA1535, Metabolic Activation: None, Method: Preincubation) is “inactive; negative”; the mutagenic call (Test System: Ames Salmonella typhimurium, Strain/Indicator: TA1535, Metabolic Activation: Rat, Liver, S9, Sodium phenobarbital and 5,6-benzoflavone (10%), Method: Preincubation) was “inactive; negative”. Further, the mutagenic call by setting is: (Test System: Ames Salmonella typhimurium, Strain/Indicator: TA1537, Metabolic Activation: None, Method: Preincubation) “inactive; negative”; (Test System: Ames Salmonella typhimurium, Strain/Indicator: TA1537, Metabolic Activation: Rat, Liver, S9, Sodium phenobarbital and 5,6-benzoflavone (10%), Method: Preincubation) “inactive; negative”; (Test System: E. coli, Strain/Indicator: WP2uvrA/pKM101, Metabolic Activation: None, Method: Preincubation) “inactive; negative”; (Test System: E. coli, Strain/Indicator: WP2uvrA/pKM101, Metabolic Activation: Rat, Liver, S9, Sodium phenobarbital and 5,6-benzoflavone (10%), Method: Preincubation) “inactive; negative”.
Regarding `CC(=O)Nc1cc2c(cc1OC(=O)c1ccccc1)-c1ccccc1C2`, under setting [1], the mutagenic call is “inactive; negative”.
Consider `COc1cc(Oc2ccc(Cl)cc2Cl)ccc1N`, for which the mutagenic call (Test System: AMES SALMONELLA TYPHIMURIUM, Strain/Indicator: TA98, Metabolic Activation: S-9, Method: STANDARD PLATE) was “inactive; negative”; the mutagenic call under setting [3] is “active; positive”; the mutagenic call (Test System: AMES SALMONELLA TYPHIMURIUM, Strain/Indicator: YG1021, Metabolic Activation: S-9, Method: STANDARD PLATE) is “inactive; negative”; the mutagenic call (Test System: AMES SALMONELLA TYPHIMURIUM, Strain/Indicator: YG1024, Metabolic Activation: S-9, Method: STANDARD PLATE) is “active; positive”; the mutagenic call (Test System: AMES SALMONELLA TYPHIMURIUM, Strain/Indicator: YG1026, Metabolic Activation: S-9, Method: STANDARD PLATE) is “active; positive”; the mutagenic call (Test System: AMES SALMONELLA TYPHIMURIUM, Strain/Indicator: YG1029, Metabolic Activation: S-9, Method: STANDARD PLATE) is “active; positive”.
Take `ClNc1ccc2c(c1)Cc1ccccc1-2`: the mutagenic call under setting [1] was “active; positive”.
Regarding `Cc1ccc2c(c1)c(=NC(=O)CCCl)sn2C(=O)CCCl`, under setting [3], the mutagenic call was “inactive; negative”.
On to `O=C1NC(=O)[C@H]2[C@H]3C=C[C@@H]([C@@H]12)[C@@H]1[C@H]2C(=O)NC(=O)[C@H]2[C@H]31`, for which the mutagenic call is, setting by setting: (Test System: MOUSE LYMPHOMA, Strain/Indicator: L5178Y (TK+/TK-), Metabolic Activation: NONE, Method: SUSPENSION/PLATE) “active; positive. reevaluation of results: inconclusive”; (Test System: MOUSE LYMPHOMA, Strain/Indicator: L5178Y (TK+/TK-), Metabolic Activation: RAT, LIVER, S-9, AROCLOR 1254, Method: SUSPENSION/PLATE) “active; positive. reevaluation of results: positive”.
